Calls of active or inactive are those of the source. No cut-off for these calls is given here. Peptide text beside a SMILES is read from it.
How the values were obtained:
[1] = Antiinflammatory activity against LPS-stimulated ThG elicited C57BL/6 mouse peritoneal macrophages assessed as inhibition of LPS-induced IL6 production measured after 24 hrs by Griess assay; format: functional, Peritoneal macrophage; set-up: concentration or dose not given beside the values
[2] = Antiinflammatory activity against LPS-stimulated ThG elicited C57BL/6 mouse peritoneal macrophages assessed as reduction in cell surface CD40 expression measured after 24 hrs by Flow cytometry analysis; format: functional, Peritoneal macrophage; set-up: concentration or dose not given beside the values
[3] = Antiinflammatory activity against LPS-stimulated ThG elicited C57BL/6 mouse peritoneal macrophages assessed as reduction in cell surface CD86 expression measured after 24 hrs by Flow cytometry analysis; format: functional, Peritoneal macrophage; set-up: concentration or dose not given beside the values
[4] = Antiinflammatory activity against LPS-stimulated ThG elicited C57BL/6 mouse peritoneal macrophages assessed as inhibition of LPS-induced TNFalpha production measured after 24 hrs by ELISA; format: functional, Peritoneal macrophage; set-up: scale not given: the % may be the effect or the level left
[5] = Antiinflammatory activity against LPS-stimulated ThG elicited C57BL/6 mouse peritoneal macrophages assessed as inhibition of LPS-induced NO production measured after 24 hrs by Griess assay; format: functional, Peritoneal macrophage; set-up: concentration or dose not given beside the values
Mus musculus [6] = assay: Antiinflammatory activity in LPS-induced C57BL/6 mouse peritonitis model assessed as reduction in CD40 protein expression at 50 ug, ip treated for 3 hrs followed by LPS stimulation and measured after 24 hrs post stimulation by flow cytometry; format: functional; set-up: scale not given: the % may be the effect or the level left; details: dose 50 µg
Mus musculus [7] = assay: Antiinflammatory activity in LPS-induced C57BL/6 mouse peritonitis model assessed as increase in F4/80 peritoneal cell population at 50 ug, ip treated for 3 hrs followed by LPS stimulation and measured after 24 hrs post stimulation by flow cytometry; format: functional; details: dose 50 µg
Mus musculus [8] = assay: Antiinflammatory activity in LPS-induced C57BL/6 mouse peritonitis model assessed as increase in Gr1 cell population at 50 ug, ip treated for 3 hrs followed by LPS stimulation and measured after 24 hrs post stimulation by flow cytometry; format: functional; details: dose 50 µg
Mus musculus [9] = assay: Antiinflammatory activity in LPS-induced C57BL/6 mouse peritonitis model assessed as reduction in CD86 protein expression at 50 ug, ip treated for 3 hrs followed by LPS stimulation and measured after 24 hrs post stimulation by flow cytometry; format: functional; set-up: scale not given: the % may be the effect or the level left; details: dose 50 µg
Mus musculus [10] = assay: Antiinflammatory activity in LPS-induced C57BL/6 mouse peritonitis model assessed as reduction in LPS-induced serum TNF alpha levels at 50 ug, ip treated for 3 hrs followed by LPS stimulation and measured after 24 hrs post stimulation by ELISA; format: functional; set-up: scale not given: the % may be the effect or the level left; details: dose 50 µg
Mus musculus [11] = assay: Antiinflammatory activity in LPS-induced C57BL/6 mouse peritonitis model assessed as reduction in LPS-induced serum IL-6 levels at 50 ug, ip treated for 3 hrs followed by LPS stimulation and measured after 24 hrs post stimulation by ELISA; format: functional; set-up: scale not given: the % may be the effect or the level left; details: dose 50 µg
[12] = target: T1, Neutrophil elastase (Homo sapiens) (UniProt P08246); assay: Inhibition of neutrophil elastase (unknown origin) at 0.96 to 96.15 uM; details: dose 0.96-96.15 µM
T1 sequence (whole entry): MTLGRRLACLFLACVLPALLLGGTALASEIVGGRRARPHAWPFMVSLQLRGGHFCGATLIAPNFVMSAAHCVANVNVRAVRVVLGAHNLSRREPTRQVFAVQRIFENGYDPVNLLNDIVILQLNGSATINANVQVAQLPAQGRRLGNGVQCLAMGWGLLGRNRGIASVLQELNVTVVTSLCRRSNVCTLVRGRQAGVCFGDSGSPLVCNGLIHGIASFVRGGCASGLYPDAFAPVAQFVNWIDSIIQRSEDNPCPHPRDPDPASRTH

SMILES	inhibition [12]	Activity [1] [%]	Activity [2] [%]	Activity [3] [%]	Activity [5] [%]	further results
COc1cccc(C(=O)NC(Cc2c[nH]cn2)C(=O)NC(C(N)=O)c2ccccc2)c1OC (configuration not stated)	–	46.3	–	–	–	–
NC(=O)c1ccc(CNC(=O)C(Cc2c[nH]cn2)NCc2ccc(O)cc2)cc1 (configuration not stated)	–	46.3	49.3	20.4	–	–
NC(=O)CCC(NC(=O)C1Cc2nc[nH]c2CN1)C(N)=O (configuration not stated)	–	46.3	–	–	–	Activity [4]: 24.4%
COc1cccc(C(=O)NC(Cc2c[nH]cn2)C(=O)NCc2ccc(C(N)=O)cc2)c1OC (configuration not stated)	–	46.3	–	–	29.5	–
NC(=O)c1ccc(CNC(=O)C(Cc2c[nH]cn2)NCc2cccc(O)c2)cc1 (configuration not stated)	–	46.3	–	–	–	–
NC(=O)C(NC(=O)C(Cc1c[nH]cn1)NCc1ccc(O)cc1)c1ccccc1 (configuration not stated)	–	33.5	27.4	16.4	38.7	Activity [4]: 19.9%; Activity (Mus musculus [6]): 47.3%; Activity (Mus musculus [7]): 130.4%; Activity (Mus musculus [8]): 48.4%; Activity (Mus musculus [9]): 45.6%; Activity (Mus musculus [10]): 73.4%; Activity (Mus musculus [11]): 80.6%
CC(=O)N[C@@H](CC(=O)O)C(=O)N[C@@H](CC(C)C)C(=O)N[C@@H](CCCCN)C(=O)N[C@@H](CCCCN)C(=O)N[C@@H](CC(=O)O)C(=O)N[C@@H](CCCCN)C(=O)N[C@@H](C)C(N)=O (Ac-DLKKDKA-NH2)	inactive	–	–	–	–	–
CC(=O)N[C@@H](CC(C)C)C(=O)N[C@@H](CCC(=O)O)C(=O)NCC(=O)N1CCC[C@H]1C(=O)N[C@@H](CCCCN)C(=O)N[C@@H](C)C(N)=O (Ac-LEGPKA-NH2)	inactive	–	–	–	–	–
CC(=O)N[C@@H](CC(C)C)C(=O)N1CCC[C@H]1C(=O)N[C@@H](CC(N)=O)C(=O)N[C@@H](CO)C(=O)N[C@@H](CC(C)C)C(=O)NCC(=O)N[C@@H](CC(N)=O)C(N)=O (Ac-LPNSLGN-NH2)	inactive	–	–	24.7	70.3	–
CC(=O)N[C@@H](CCC(N)=O)C(=O)N[C@@H](Cc1ccccc1)C(=O)N[C@@H](Cc1ccccc1)C(=O)N[C@@H](CCCCN)C(=O)NCC(=O)N[C@@H](CCCCN)C(N)=O (Ac-QFFKGK-NH2)	inactive	–	41.6	35.2	51.8	–

Now from value to molecule, other results behind:

inhibition [12]	SMILES	Activity [1] [%]	Activity [2] [%]	Activity [3] [%]	Activity [5] [%]	further results
inactive	CC[C@H](C)[C@H](NC(=O)[C@H](CO)NC(=O)[C@H](CC(C)C)NC(=O)[C@H](CC(C)C)NC(=O)[C@@H](NC(=O)CNC(=O)[C@@H](NC(=O)[C@H](C)NC(C)=O)[C@@H](C)O)[C@@H](C)O)C(=O)N[C@@H](CC(N)=O)C(N)=O (Ac-ATGTLLSIN-NH2)	–	–	–	–	–
inactive	CC(=O)N[C@@H](Cc1ccccc1)C(=O)N[C@@H](CCCNC(=N)N)C(=O)N[C@@H](Cc1ccc(O)cc1)C(=O)N[C@@H](CC(C)C)C(=O)N[C@H](C(=O)N[C@@H](CC(C)C)C(=O)N[C@@H](Cc1ccccc1)C(N)=O)C(C)C (Ac-FRYLVLF-NH2)	–	–	–	–	–
inactive	CC(=O)N[C@@H](Cc1c[nH]cn1)C(=O)N[C@@H](CS)C(=O)N[C@@H](CCCCN)C(=O)N[C@@H](CCCCN)C(=O)N[C@@H](CC(C)C)C(=O)NCC(=O)N[C@@H](CCCCN)C(=O)N[C@@H](Cc1ccccc1)C(N)=O (Ac-HCKKLGKF-NH2)	–	–	–	–	–
inactive	CC[C@H](C)[C@H](NC(=O)[C@@H](NC(=O)[C@H](Cc1ccc(O)cc1)NC(=O)[C@H](CC(C)C)NC(=O)[C@H](Cc1ccccc1)NC(=O)[C@H](CC(C)C)NC(C)=O)C(C)C)C(=O)N[C@@H](Cc1c[nH]cn1)C(N)=O (Ac-LFLYVIH-NH2)	38.4	45.7	–	57.6	–
inactive	CC[C@H](C)[C@H](NC(=O)[C@H](CCC(=O)O)NC(=O)[C@H](CC(C)C)NC(=O)[C@H](CCCCN)NC(=O)[C@H](CCCCN)NC(=O)[C@H](CS)NC(=O)[C@H](Cc1c[nH]cn1)NC(=O)[C@H](CCC(N)=O)NC(C)=O)C(=O)N[C@@H](CCCCN)C(N)=O (Ac-QHCKKLEIK-NH2)	–	–	–	–	–
inactive	CC(=O)N[C@@H](Cc1ccc(O)cc1)C(=O)N[C@@H](CCCNC(=N)N)C(=O)N[C@@H](C)C(=O)N[C@@H](Cc1c[nH]cn1)C(=O)N[C@@H](CCC(N)=O)C(=O)NCC(=O)N[C@@H](CCC(=O)O)C(N)=O (Ac-YRAHQGE-NH2)	52.2	55.3	52.4	66.9	–

From ChEMBL document CHEMBL5038621, “Development of anti-inflammatory peptidomimetics based on the structure of human alpha1-antitrypsin” (2022)
